One experiment concerns human platelet rich plasma. Kind of experiment: Inhibition of human platelet aggregation, "Born"-method in single cuvettes (ADP-induced, platelet rich plasma). In kind it is cell-based. To be noted: Platelet, 0.1 h, human PRP, aggregation induced by ADP, measured over 6 minutes at 37° C. The procedure:
Alternatively to a binding assay which measures a compound's ability to bind to the P2Y12 receptor, the effect on cellular function was also determined. This ability of the compound was evaluated in two platelet aggregation assays: in 96-well plates and with the “Born”-method using single cuvettes.
Whole blood was collected from healthy volunteers using 20 ml syringes containing 2 ml of buffered Citrate. The anticoagulated whole blood was transferred into 15 ml polypropylene conical tubes (10 ml per tube). The tubes were centrifuged for 15 minutes at 340×g at RT without using the centrifuge brake. This procedure leads to a pellet of cellular components and a supernatant of platelet rich plasma (PRP). The PRP layer was collected from each tube and pooled for each donor. To avoid carry over of cellular components following centrifugation, approximately 5 ml of PRP was left in the tube. The platelet concentration was determined using a Coulter Counter.
The 15 ml tubes containing the pellet of cellular components were centrifuged again for 10 minutes at 1940×g. This pelleted out most particulate blood constituents remaining, leaving a layer of Platelet Poor Plasma (PPP). The PPP was collected for each donor. The PRP layer, previously set aside, was diluted with PPP to a final concentration of approximately 3×E8 platelets/ml with the PPP.
The human platelet aggregation assay is performed in single use cuvettes using the platelet aggregation profiler (PAP-4 or -8, Bio/Data corporation).
In the assay cuvette 4 μl of test compound at 100× final concentration in DMSO is mixed with 392 μl fresh PRP and incubated for 2 minutes at 37° C. with 1.200 rpm stirring. Following that incubation period, 4 μl of 250 μM ADP is added to the reaction mix. This addition of ADP is sufficient to induce aggregation in the absence of an inhibitor. After that aggregation is measured over 6 minutes at 37° C. with 1.200 rpm stirring. Results of the assay are expressed as % inhibition, and are calculated using maximum aggregation (Tmax) or area under curve (AUC) of the absorbance over 6 minutes.
`CCOC(=O)N1CCN(C(=O)[C@H](CCC(=O)O)NC(=O)c2cc(OCC(=O)N3CCC(S(C)(=O)=O)C3)c3ccc(C)cc3n2)CC1` (stereo partly drawn) [Example 18, 4-[(S)-4-Carboxy-2-({4-[2-(3-methanesulfonyl-pyrrolidin-1-yl)-2-oxo-ethoxy]-7-methyl-quinoline-2-carbonyl}-amino)-butyryl]-piperazine-1-carboxylic acid ethyl ester] displayed an IC50 of 160 nM.
Same read-out and setting: in the case of `CCCCOC(=O)N1CCN(C(=O)CNC(=O)c2cc(OCC(=O)N3C[C@H](O)C[C@H]3C(=O)NC3CCC3)c3ccc(C)cc3n2)CC1` [Example 689, 4-[2-({4-[2-((2S,4R)-2-Cyclobutylcarbamoyl-4-hydroxy-pyrrolidin-1-yl)-2-oxo-ethoxy]-7-methyl-quinoline-2-carbonyl}-amino)-acetyl]-piperazine-1-carboxylic acid butyl ester] it was 0.6 nM.
Same read-out and setting: next, `CCOC(=O)N1CCN(C(=O)[C@H](CCC(=O)O)NC(=O)c2cc(OCC(=O)N3CCC[C@H]3C(=O)O)c3ccc(C)cc3n2)CC1` [Example 17, 4-[(S)-4-Carboxy-2-({4-[2-((S)-2-carboxy-pyrrolidin-1-yl)-2-oxo-ethoxy]-7-methyl-quinoline-2-carbonyl}-amino)-butyryl]-piperazine-1-carboxylic acid ethyl ester]: 240 nM; `CCCCOC(=O)N1CCN(C(=O)[C@H](CCC(=O)O)NC(=O)c2cc(OCC(=O)N3CCC[C@H]3c3ccccc3)c3ccc(C)cc3n2)CC1` [Example 481, 4-[(S)-4-Carboxy-2-({7-methyl-4-[2-oxo-2-((S)-2-phenyl-pyrrolidin-1-yl)-ethoxy]-quinoline-2-carbonyl}-amino)-butyryl]-piperazine-1-carboxylic acid butyl ester]: 80 nM.
Regarding `CCOC(=O)N1CCN(C(=O)[C@H](CCC(=O)O)NC(=O)c2cc(OCC(=O)N3CC(O)CC3C(=O)OC)c3ccccc3n2)CC1` (stereo partly drawn) [Example 71, 4-[(S)-4-Carboxy-2-({4-[2-(4-hydroxy-2-methoxycarbonyl-pyrrolidin-1-yl)-2-oxo-ethoxy]-quinoline-2-carbonyl}-amino)-butyryl]-piperazine-1-carboxylic acid ethyl ester], half-maximal inhibition (IC50) required 310 nM.
On the same count and under the same terms, next, `CCOC(=O)N1CCN(C(=O)[C@H](CCC(=O)O)NC(=O)c2cc(OCC(=O)N3CCC[C@H]3C(=O)NC3CC3)c3ccc(C)cc3n2)CC1` [Example 3, 4-[(S)-4-Carboxy-2-({4-[2-((S)-2-cyclopropylcarbamoyl-pyrrolidin-1-yl)-2-oxo-ethoxy]-7-methyl-quinoline-2-carbonyl}-amino)-butyryl]-piperazine-1-carboxylic acid ethyl ester]: 180 nM.
In turn, `CCOC(=O)N1CCN(C(=O)[C@H](CCC(=O)O)NC(=O)c2cc(OCC(=O)N3CCCC3c3ccco3)c3ccccc3n2)CC1` (stereo partly drawn) [Example 317, 4-[(S)-4-Carboxy-2-({4-[2-(2-furan-2-yl-pyrrolidin-1-yl)-2-oxo-ethoxy]-quinoline-2-carbonyl}-amino)-butyryl]-piperazine-1-carboxylic acid ethyl ester] registered a half-maximal inhibitory concentration (IC50) of 290 nM. Against the preceding compound, the IC50 is about 1.6-fold higher.
Still for that read-out and setting: next, `CCOC(=O)N1CCN(C(=O)[C@H](CCC(=O)O)NC(=O)c2cc(O[C@H](C)C(=O)N3CCC[C@H]3C(=O)NC3CCCC3)c3ccc(C)cc3n2)CC1` [Example 294, 4-[(S)-4-Carboxy-2-({4-[(R)-2-((S)-2-cyclopentylcarbamoyl-pyrrolidin-1-yl)-1-methyl-2-oxo-ethoxy]-7-methyl-quinoline-2-carbonyl}-amino)-butyryl]-piperazine-1-carboxylic acid ethyl ester]: 30 nM.

Staying with this experiment, now noted: human PRP, aggregation induced by ADP, measured over 6 minutes at 37° C.
In turn, “4-{2-[(7-Methyl-4-{2-oxo-2-[4-(pyrrolidine-1-carbonyl)-piperidin-1-yl]-ethoxy}-quinoline-2-carbonyl)-amino]-acetyl}-piperazine-1-carboxylic acid butyl ester [Example 660]” yielded an IC50 of 94 nM.

Source of the values: patent US8669266B2, “Quinoline-carboxamide derivatives as P2Y12 antagonists” (Sanofi, priority 2007, dated 2014).
